Patent publication US20130030055A1, “COMPOSITIONS AND METHODS FOR TREATING HAIR LOSS, HAIR THINNING, AND HAIR COLOR LOSS” (priority 2010, published 2013)

Key:
Assay type in all cases: in vivo, human
eyelashes = assay: Open-label study: health outcomes questionnaires and verbal responses
Description: Subjects were instructed to apply bimatoprost 0.03% to the eyelid lash line once daily for 12 weeks using an applicator (Studio Basics Professional Tools Eye Applicators, Paris Presents Incorporated, Gumee, Ill.) for each upper eyelid each evening and, if necessary, to wipe the areas immediately around the eyelid afterward to remove excess medication. Periodic use of artificial tears was allowed, but only prior to administration of bimatoprost 0.03%. Health Outcomes Questionnaires. A questionnaire was used to track adverse events and to assess the subjects' satisfaction with treatment and their subjective evaluation of their eyelashes' appearance. Subjects were asked to answer all questions and return the questionnaire at weeks 4, 8, and 12. Subjects were also asked to respond verbally to 2 additional questions and their responses were recorded by site staff (FIGS. 1-4).

[1] = Open-label study: intraocular pressure measurements
Description: (§1) Subjects were instructed to apply bimatoprost 0.03% to the eyelid lash line once daily for 12 weeks using an applicator (Studio Basics Professional Tools Eye Applicators, Paris Presents Incorporated, Gumee, Ill.) for each upper eyelid each evening and, if necessary, to wipe the areas immediately around the eyelid afterward to remove excess medication. Periodic use of artificial tears was allowed, but only prior to administration of bimatoprost 0.03%.
(§2) Clinical Examinations. Assessments were conducted at baseline and at weekly study visits at weeks 1, 4, 8, 12 (end of treatment period), and 16 (post-treatment follow-up period). At each visit, subjects underwent a complete eye examination by an ophthalmologist that included intraocular pressure measurements, visual acuity, and biomicroscopy. Subjects were queried at each visit for adverse events and these were recorded by the investigator. The presence of periorbital darkening was noted and graded on a scale of 0 to 4, and adverse event data were collected at each visit during the treatment period.
Statistical Analyses. A 2-sided paired t-test was used to evaluate the intraocular pressure change from baseline, and the GEA change from week 1 to week 12 was compared using a Wilcoxon signed-rank test. Analysis of intraocular pressure was performed on a per-eye and per-subject basis. A significance level of 0.05 was used for all statistical tests. Categorical variables were summarized with frequency, count, and percentages.

[2] = Open-label study: adverse events, periorbital darkening, biomicroscopy
Description: as §1, §2
Health Outcomes Questionnaires. A questionnaire was used to track adverse events and to assess the subjects' satisfaction with treatment and their subjective evaluation of their eyelashes' appearance. Subjects were asked to answer all questions and return the questionnaire at weeks 4, 8, and 12. Subjects were also asked to respond verbally to 2 additional questions and their responses were recorded by site staff (FIGS. 1-4).

[3] = Randomized vehicle-controlled study: intraocular pressure; details: eye as sampling unit
Experimental: Safety measurements collected during this study included adverse events, ophthalmic examination variables (iris color, IOP, visual acuity, biomicroscopy, and ophthalmoscopy), physical examination, vital signs, and pregnancy testing.
Iris color was recorded for each subject at every study visit. Iris color was grouped as light (blue, blue-gray, blue/gray-brown, green, green-brown, hazel, and other) and dark (brown and dark brown). If the “other” category contained black in the description, it was grouped as dark. IOP (measured at approximately the same time of day at each visit), visual acuity, and biomicroscopy data were collected at screening, week 1, and months 1, 2, 3, 4, and 5. Ophthalmoscopy (dilated) was performed at screening and month 4.
IOP measurements were collected twice for each eye. If the 2 measurements differed by more than 2 mmHg, a third measurement was taken on that eye. If 2 measurements were collected, the average of the 2 was recorded as the IOP for a particular eye; if a third measurement was collected, the median measurement was recorded as the IOP for that eye. As all subjects were treated bilaterally, the average of the subject's right and left eye IOP values was analyzed for each time point. In the case where data were collected for only 1 eye, the collected data served as the IOP for the subject at that time point. […] Within-group changes from baseline were analyzed by the paired t-test. All analyses were based on observed cases and no data imputations were performed.
All adverse events were summarized and analyzed by the following subgroups: age (<45, 45 to 65, and >65 years), gender, and race (Caucasian and non-Caucasian). This was performed for both the treatment and posttreatment periods. Analyses of IOP were stratified by 3 subgroups, according to baseline IOP (8 to 12 mm Hg, >12 to 15 mm Hg, and >15 mm Hg). These ranges were determined by taking the bottom tercile, middle tercile, and the top tercile of baseline IOPs. The sampling unit was the “eye” (ie, each subject contributed 2 data points). Within each of the subgroups, the number and percent of subjects with an IOP of ≦6 mmHg was summarized by treatment group and visit utilizing a frequency table and was analyzed by the Pearson's chi-square test or Fisher's exact tables for 2-by-2 tables for each visit. The sampling unit was the eye and not the subject. In addition, a scatterplot of baseline IOP versus final IOP for each treatment group was presented for the treatment period and post-treatment period.

## CCNC(=O)CCC/C=C\C[C@@H]1[C@@H](/C=C/[C@@H](O)CCc2ccccc2)[C@H](O)C[C@@H]1O [bimatoprost]
eyelashes; 16 respondents at week 12
  Subjects who noticed changes in eyelashes by week 12: 3 subjects
  Subjects who noticed changes in eyelashes within the first month: 3 subjects
  Subjects who noticed changes in eyelashes within the first week: One
eyelashes; 16 respondents at week 12 (9/16)
  Respondents who had started to notice changes in their eyelashes by week 8: 56.3%
eyelashes; by week 12, all respondents
  Respondents indicating eyelashes were "improved" or "much improved": 16 respondents
eyelashes; week 4 (8/19)
  Respondents answering yes to "Do your eyes sting or burn upon application?": 42.2%
eyelashes; week 8 (6/18)
  Respondents answering yes to "Do your eyes sting or burn upon application?": 33.3%
eyelashes; week 12 (4/15)
  Respondents answering yes to "Do your eyes sting or burn upon application?": 26.7%
eyelashes; week 12 (12/16)
  Respondents agreeing "very much/much" that they had done something positive for their appearance: 75%
eyelashes; week 12 (15/16)
  Respondents agreeing "very much/much" that the treatment was helpful: 94%
eyelashes; week 12, 16 respondents
  Subjects indicating both longer and thicker: 1 subject
  Subjects reporting all 3 options, longer, thicker, and darker: 3 subjects
eyelashes; week 12, Twelve of the 16 respondents
  Respondents choosing "longer" as the eyelash change they noticed most: 81.3%
eyelashes; week 12, all 23 respondents
  Respondents who had noticed growth or darkening of their eyelashes (verbal question): 100%
eyelashes; weeks 4, 8, 12
  Respondents indicating yes at least once to sting or burn upon application: 10 respondents
[1]; bimatoprost 0.03% once daily to eyelid lash line for 12 weeks, per eye
  Mean change from baseline in intraocular pressure across all weeks (per eye): +0.98 to −0.81 mm Hg
[1]; bimatoprost 0.03% once daily to eyelid lash line for 12 weeks, per subject
  Mean change from baseline in intraocular pressure across all weeks (per subject): +0.98 to −0.79 mm Hg
[1]; each time point
  Mean change from baseline intraocular pressure at each time point: less than 1 mm Hg
[1]; week 1, P=0.0470
  Per-eye intraocular pressure change from baseline: −0.81±2.72 mm Hg
[1]; week 4, P=0.0412
  Per-eye intraocular pressure change from baseline: 0.98±3.23
[1]; within accepted variability of the test
  Clinical significance of changes in intraocular pressure: not clinically significant
[2]; Week 1 (n = 24)
  Subjects Reported (n): Eye redness: 2
  Subjects Reported (n): Periorbital pigmentation changes: 0
  Subjects Reported (n): Possible brown eye shadow effect: 1
[2]; Week 4 (n = 27)
  Subjects Reported (n): Burning: 1
  Subjects Reported (n): Dryness and tightness: 1
  Subjects Reported (n): Eye redness: 4
  Subjects Reported (n): Mild itchiness: 3
  Subjects Reported (n): Periorbital pigmentation changes: 3
  Subjects Reported (n): Periorbital redness: 1
[2]; Week 8 (n = 20)
  Subjects Reported (n): Burning: 2
  Subjects Reported (n): Mild itchiness: 2
  Subjects Reported (n): Periorbital pigmentation changes: 1
  Subjects Reported (n): Redness and dryness: 1
[2]; Week 12 (n = 23)
  Subjects Reported (n): Dryness and darkening: 1
  Subjects Reported (n): Eye redness: 1
  Subjects Reported (n): Eyelid redness: 1
  Subjects Reported (n): Itching: 1
  Subjects Reported (n): Periorbital pigmentation changes: 3
  Subjects Reported (n): Red and sore: 1
[2]; any subject at any visit
  Hyperemia on biomicroscopy examination: not observed
[2]; during the course of the study, 28 subjects
  Subjects with periorbital darkening: 18%
[2]; of 28 subjects
  Subjects whose pigmentation changes were noted as possible, slight or a little: 11%
[2]; whole study
  Serious or unexpected adverse events: no serious or unexpected adverse events
[3]; Week 12
  Intraocular pressure, Max: 3.5 mmHg
  Intraocular pressure, Median: −1.25 mmHg
  Intraocular pressure, Min: −7.0 mmHg
[3]; Week 12, N 252
  Intraocular pressure, Mean: −1.54 mmHg
[3]; Week 16
  Intraocular pressure, Max: 6.0 mmHg
  Intraocular pressure, Median: −1.50 mmHg
  Intraocular pressure, Min: −7.5 mmHg
[3]; Week 16, N 252
  Intraocular pressure, Mean: −1.25 mmHg
[3]; Week 20 (post-treatment)
  Intraocular pressure, Max: 5.0 mmHg
  Intraocular pressure, Median: −0.50 mmHg
  Intraocular pressure, Min: −7.5 mmHg
[3]; Week 20 (post-treatment), N 262
  Intraocular pressure, Mean: −0.67 mmHg
